Data reported in ChEMBL document CHEMBL1201862, “PubChem BioAssay data set” (2004).
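Cells were grown in 96-well plates and exposed to each compound for 48 hours at five concentrations; endpoints were interpolated linearly between bracketing concentrations, or set to the highest concentration if not reached. Here, GI50 denotes the concentration required for 50% inhibition of growth.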 Activity calls are given as the source filed them. No stated cut-off is given here; in the data, active = GI50 up to about 1.1 µM and inactive = higher.

What was measured:
Test in all cases: inhibition of tumour cell growth, NCI panel, 48 h
A498 = test system: A498
ACHN = test system: ACHN
BT-549 = test system: BT-549
COLO 205 = test system: COLO 205
HL-60 = test system: HL-60
HOP-92 = test system: HOP-92
Hs-578T = test system: Hs-578T
KM12 = test system: KM12
MDA-MB-231 = test system: MDA-MB-231
MOLT-4 = test system: MOLT-4
NCI-H226 = test system: NCI-H226
NCI/ADR-RES = test system: NCI/ADR-RES
OVCAR-4 = test system: OVCAR-4
OVCAR-5 = test system: OVCAR-5
SK-MEL-28 = test system: SK-MEL-28
SN12C = test system: SN12C
SNB-19 = test system: SNB-19
SNB-75 = test system: SNB-75
SW-620 = test system: SW-620
U-251 = test system: U-251

Row | Structure (SMILES) | GI50 (A498) | GI50 (ACHN) | GI50 (BT-549) | GI50 (COLO 205) | GI50 (HL-60) | GI50 (HOP-92) | GI50 (Hs-578T) | GI50 (KM12) | GI50 (MDA-MB-231) | GI50 (MOLT-4) | GI50 (NCI-H226) | GI50 (NCI/ADR-RES) | GI50 (OVCAR-4) | GI50 (OVCAR-5) | GI50 (SK-MEL-28) | GI50 (SN12C) | GI50 (SNB-19) | GI50 (SNB-75) | GI50 (SW-620) | GI50 (U-251)
1 | O=C(CC1C(=O)Nc2ccccc2[S+]1[O-])Nc1cccc(Cl)c1 (stereo not drawn) | 13.2 µM (inactive) | 33.7 µM (inactive) | 26.3 µM (inactive) | > 41 µM (inactive) | > 33.5 µM (inactive) | 19.5 µM (inactive) | 38.1 µM (inactive) | > 57.9 µM (inactive) | 7.31 µM (inactive) | > 37.7 µM (inactive) | 44.3 µM (inactive) | 18.5 µM (inactive) | > 53.8 µM (inactive) | > 62.7 µM (inactive) | > 57.7 µM (inactive) | > 51.9 µM (inactive) | 30.5 µM (inactive) | 16.4 µM (inactive) | > 48 µM (inactive) | 33.7 µM (inactive)
2 | CC(=O)Oc1c(-c2ccccc2)sc2ccccc12 | 17.8 µM (inactive) | 15.6 µM (inactive) | 21.4 µM (inactive) | 15.6 µM (inactive) | 18 µM (inactive) | 15.1 µM (inactive) | 19.6 µM (inactive) | 18.4 µM (inactive) | 14 µM (inactive) | 14.7 µM (inactive) | 13.3 µM (inactive) | 18.2 µM (inactive) | 23 µM (inactive) | 29.2 µM (inactive) | 21.3 µM (inactive) |  | 34.4 µM (inactive) | 15.8 µM (inactive) | 36.1 µM (inactive) | 18 µM (inactive)
3 | Cc1ccc(OCCn2cc(Nc3ccccc3)c(=O)[nH]c2=O)cc1 | > 100 µM (inactive) | > 100 µM (inactive) | > 100 µM (inactive) | > 100 µM (inactive) |  | > 100 µM (inactive) | 22.1 µM (inactive) | > 100 µM (inactive) | > 100 µM (inactive) | > 100 µM (inactive) | > 100 µM (inactive) | > 100 µM (inactive) | > 100 µM (inactive) | > 100 µM (inactive) | > 100 µM (inactive) | > 100 µM (inactive) | > 100 µM (inactive) | 34.3 µM (inactive) | > 100 µM (inactive) | > 100 µM (inactive)
4 | Cc1cc2c(nn1)-c1ccccc1C2=O | > 10 µM (inactive) | > 10 µM (inactive) | > 10 µM (inactive) | > 10 µM (inactive) | > 10 µM (inactive) | > 10 µM (inactive) | > 10 µM (inactive) | > 10 µM (inactive) | > 10 µM (inactive) | > 10 µM (inactive) | > 10 µM (inactive) | > 10 µM (inactive) | > 10 µM (inactive) | > 10 µM (inactive) | > 10 µM (inactive) | > 10 µM (inactive) | > 10 µM (inactive) |  | > 10 µM (inactive) | > 10 µM (inactive)
5 | SC1=NC2(CCCCCC2)NN1c1ccccc1 | 50.5 µM (inactive) | 0.0785 µM (active) | > 100 µM (inactive) | 0.104 µM (active) | 0.0867 µM (active) | > 100 µM (inactive) | > 100 µM (inactive) | 0.291 µM (active) | > 100 µM (inactive) | 0.891 µM (active) | > 100 µM (inactive) | > 100 µM (inactive) | 2.16 µM (inactive) | 1.91 µM (inactive) | 1.11 µM (active) | > 27.3 µM (inactive) | > 41 µM (inactive) | > 66.8 µM (inactive) | 1.78 µM (inactive) | 
6 | CCCCc1ccc(N2C(=O)c3cc([N+](=O)[O-])cnc3S2(=O)=O)cc1 | > 100 µM (inactive) | > 100 µM (inactive) | 87.7 µM (inactive) | > 100 µM (inactive) |  | 0.424 µM (active) | > 100 µM (inactive) | > 100 µM (inactive) | > 100 µM (inactive) | > 100 µM (inactive) | > 100 µM (inactive) | 25.2 µM (inactive) | > 100 µM (inactive) | > 100 µM (inactive) | > 100 µM (inactive) | > 100 µM (inactive) | 52.1 µM (inactive) | > 100 µM (inactive) | > 100 µM (inactive) | 31.8 µM (inactive)
7 | O=S1(=O)Cc2ccc3c4c2-c2c(ccc5ccc(c-4c25)CS(=O)(=O)C3)C1 | > 100 µM (inactive) | 20.7 µM (inactive) | 91.8 µM (inactive) |  | 16.3 µM (inactive) | 89.9 µM (inactive) | > 100 µM (inactive) | 41.9 µM (inactive) | > 100 µM (inactive) | 23.1 µM (inactive) | > 100 µM (inactive) | > 100 µM (inactive) | > 100 µM (inactive) | > 100 µM (inactive) | > 100 µM (inactive) | 82.4 µM (inactive) | > 100 µM (inactive) | 69.7 µM (inactive) | 71 µM (inactive) | > 100 µM (inactive)
8 | Cc1cccc(N2C(=O)C3c4[nH]c5ccccc5c4C4CCC(C(C)(C)C)CC4C3C2=O)c1C (stereo not drawn) | > 100 µM (inactive) | > 100 µM (inactive) | > 100 µM (inactive) | > 100 µM (inactive) | 16.9 µM (inactive) | > 100 µM (inactive) | 25.8 µM (inactive) |  | 19 µM (inactive) | > 100 µM (inactive) | > 100 µM (inactive) | > 100 µM (inactive) |  | > 100 µM (inactive) |  | 78.7 µM (inactive) | > 100 µM (inactive) |  | 40 µM (inactive) | 28.2 µM (inactive)
9 | CC1=NNC(=O)C1C1CC(c2c[nH]c3ccccc23)=NN=C1Cl (stereo not drawn) | > 100 µM (inactive) | 86.1 µM (inactive) | 37 µM (inactive) | 28.1 µM (inactive) | 20 µM (inactive) | > 100 µM (inactive) | 61.8 µM (inactive) | 21.9 µM (inactive) | 46.6 µM (inactive) | 24.2 µM (inactive) | 74.1 µM (inactive) | > 100 µM (inactive) |  | > 100 µM (inactive) | 87.5 µM (inactive) | 82 µM (inactive) | 40.9 µM (inactive) | 75 µM (inactive) | 63.5 µM (inactive) | 43.6 µM (inactive)
10 | CC(C)(CO)NC(=O)Nc1c(C(F)(F)F)cc(-c2ccccc2)[nH]c1=O | > 100 µM (inactive) | > 100 µM (inactive) | > 100 µM (inactive) | > 100 µM (inactive) |  | > 100 µM (inactive) | > 100 µM (inactive) | > 100 µM (inactive) | > 100 µM (inactive) | > 100 µM (inactive) | > 100 µM (inactive) | > 100 µM (inactive) |  | > 100 µM (inactive) | > 100 µM (inactive) | > 100 µM (inactive) | > 100 µM (inactive) |  | > 100 µM (inactive) | > 100 µM (inactive)
11 | CCOC(=O)c1cn(CC)c2cc3c(cc2c1=O)CCS3(=O)=O | > 100 µM (inactive) | > 100 µM (inactive) | > 100 µM (inactive) |  | > 100 µM (inactive) | > 100 µM (inactive) | > 100 µM (inactive) | > 100 µM (inactive) | > 100 µM (inactive) | > 100 µM (inactive) | > 100 µM (inactive) | > 100 µM (inactive) |  | > 100 µM (inactive) | > 100 µM (inactive) | > 100 µM (inactive) | > 100 µM (inactive) |  | > 100 µM (inactive) | > 100 µM (inactive)
12 | O=C(N/N=C(COc1ccccc1)\N=C\c1ccncc1)c1ccncc1 | > 100 µM (inactive) | > 100 µM (inactive) | > 100 µM (inactive) | > 100 µM (inactive) | > 100 µM (inactive) | 68.7 µM (inactive) | > 100 µM (inactive) | > 100 µM (inactive) | > 100 µM (inactive) | 82 µM (inactive) |  | > 100 µM (inactive) | > 100 µM (inactive) | > 100 µM (inactive) | > 100 µM (inactive) | > 100 µM (inactive) | > 100 µM (inactive) | 34.5 µM (inactive) | > 100 µM (inactive) | > 100 µM (inactive)
13 | CC1(C)CC(=O)c2c([nH]c(=S)c(C#N)c2-c2ccc(Br)cc2)C1 | 54 µM (inactive) | 66.1 µM (inactive) | > 100 µM (inactive) | > 10 µM (inactive) | 43.9 µM (inactive) | 17.3 µM (inactive) | 29 µM (inactive) |  | 92.5 µM (inactive) |  | 46.8 µM (inactive) | > 100 µM (inactive) | 34.4 µM (inactive) | > 100 µM (inactive) | 44.1 µM (inactive) | 48.9 µM (inactive) | 45.5 µM (inactive) | > 100 µM (inactive) | 46.9 µM (inactive) | 35.6 µM (inactive)
14 | c1ccc([B-]2(c3ccccc3)NCCCO2)cc1 | 47.9 µM (inactive) | 35.4 µM (inactive) | 31.4 µM (inactive) | 24.9 µM (inactive) | > 100 µM (inactive) | 20.3 µM (inactive) | 32.1 µM (inactive) | 91.2 µM (inactive) | 42.5 µM (inactive) | 32.7 µM (inactive) | 31 µM (inactive) | 64.1 µM (inactive) | 67.9 µM (inactive) | > 100 µM (inactive) | 56.8 µM (inactive) | 70.8 µM (inactive) | > 100 µM (inactive) |  | 49.5 µM (inactive) | > 100 µM (inactive)
15 | CCC1=NC(N/N=C/c2ccco2)=N/C1=C\c1ccccc1O | 68.9 µM (inactive) | 21.9 µM (inactive) | 29.4 µM (inactive) | 44.3 µM (inactive) | 27.4 µM (inactive) | 70 µM (inactive) | 30.6 µM (inactive) | 31.5 µM (inactive) | > 100 µM (inactive) | 25.2 µM (inactive) | 28.4 µM (inactive) | 24.5 µM (inactive) | 2.86 µM (inactive) | 78.7 µM (inactive) | 38.3 µM (inactive) | > 100 µM (inactive) | 47.9 µM (inactive) |  | 63.4 µM (inactive) | 56.4 µM (inactive)
